Reference: patent US20230414573A1, “SYNERGISTIC OPHTHALMOLOGICAL COMPOSITION IN A LOW-CONCENTRATION DOSE THAT IS EFFECTIVE IN THE PREVENTION, CONTROL AND ERADICATION OF PRESBYOPIA” (priority 2020, published 2023)
“And” between values parts separate entries of the source, which are not always exact repeats. Equal values may be shown once.

Test system: eyes of patients with presbyopia
Assay: Clinical trial: near vision on Rosenbaum chart with Jaeger notation
Format: in vivo, human
Settings: one hour after instillation; for JAEGER- 2 (Jaeger scale, near vision): one drop, synergistic mixture in non-dominant eye, pilocarpine or brimonidine dilution in dominant eye, 11 patients, baseline 5.82; for WINNED LINES (lines gained in the reading primer with Jaeger's notation): synergistic combination in non-dominant eye, comparators in dominant eye
Experimental: A composition was prepared where patients with presbyopia symptoms were selected. This study was approved by the ethics committee of Optall Vision Eye Center in Mexico City. All patients signed and gave their consent to participate in such study.
For the study, patients with presbyopia, with a corrected visual acuity of 20/25 or better, were included. The diagnosis of presbyopia was determined without correcting near vision acuity was equal to or less than 3 on the Jaeger scale on the Rosenbaum chart improving at least 2 on the Jaeger scale with the use of at least +1.00 D. Age, gender, ocular dominance, uncorrected visual acuity (UCVA), corrected near visual acuity (BNCVA) intraocular pressure with Goldmann applanation tonometer (IOP), pupil diameter under photopic and scotopic conditions (PD), slit lamp biomicroscopic examination and a fundus examination were recorded.
The ophthalmic composition comprised a single low concentration dose of pilocarpine, brimonidine, oxymetazoline/sodium hyaluronate, bromfenac and/or at least one vasoconstrictor and at least one pharmaceutically acceptable vehicle. From said combination, one drop of the synergistic mixture was applied and instilled in the nondominant eye and one drop of pilocarpine or brimonidine dilution was alternately instilled in the dominant eye of consecutive patients. After one hour, uncorrected visual acuity (UCVA), corrected visual acuity (BCVA), uncorrected near visual acuity (UNVA), corrected near visual acuity (BCNVA), intraocular pressure (IOP), pupil diameter (PD), visual analog pain scale (VAS) was measured from 0 to 10. Hyperemia was measured from 1 to 4.
Statistical analyses were performed with SPSS using Pearson's and Spearman's correlation analysis.
The type of modern Jaeger eye chart scale used generally ranges from J10 (approximately 14 points for Times New Roman typeface) to J1 (approximately 3 points, Times New Roman typeface). The chart moves back and forth until you can read a certain font size.

Brc1c(NC2=NCCN2)ccc2nccnc12 [Brimonidine, brimonidine]
JAEGER- 2 (Jaeger scale, near vision): 3.50±−1.761 and 3.5 | WINNED LINES (lines gained in the reading primer with Jaeger's notation): 2.33 | WINNED LINES (lines gained in the reading primer with Jaeger's notation) (listed as brimonidine): 2.33±−2.50

CC[C@@H]1C(=O)OC[C@@H]1Cc1cncn1C [Pilocarpine, pilocarpine]
JAEGER- 2 (Jaeger scale, near vision): 4.2 | JAEGER- 2 (Jaeger scale, near vision) (listed as pilocarpine): 4.20±−1.483 | WINNED LINES (lines gained in the reading primer with Jaeger's notation): 1.6 | WINNED LINES (lines gained in the reading primer with Jaeger's notation) (listed as pilocarpine): 1.60±−089
